Like-named read-outs stand apart in the source and are kept apart here.
Experiments:
Wheat = test: Culture dish method (general screening); assay type: in vivo; conditions: 100 mg/L, 7 days
Source text: (§3) Culture dish method (general screening): The test targets were radish, cucumber, rape, wheat, sorghum and barnyard grass; the seeds of wheat, sorghum and radish were germinated in advance, and the uniform emerge-germinating seeds were used in the test.

Chinese sorghum = test: Culture dish method (general screening); assay type: in vivo; conditions: 100 mg/L, 7 days
Source text: as §3

Barnyardgrass [1] = test: Culture dish method (general screening); assay type: in vivo, barnyard grass; conditions: 100 mg/L, 7 days
Source text: as §3

Cucumber = test: Culture dish method (general screening); assay type: in vivo; conditions: 100 mg/L, 7 days
Source text: as §3

Rape [2] = test: Culture dish method (general screening); assay type: in vivo; conditions: 100 mg/L, 7 days
Source text: as §3

Radish = test: Culture dish method (general screening); assay type: in vivo; conditions: 100 mg/L, 7 days
Source text: as §3

Abutilon = test: Potted plants live body test; assay type: in vivo
Source text: (§1) The raw drug which was selected from the compounds in table 1 was weighed using an analytical balance (0.0001 g), and dissolved in DMF containing 1 wt % Tween-80 emulsifier to prepare a mother liquor of raw drug with a mass concentration of 1.0˜5.0%, and then diluted with distilled water, to prepare preparations at desired concentrations according to the ratio of ingredients in Examples 8, 9 and 10.
(§2) The test targets were mustard, small quinoa, Abutilon, amaranthus retroflexus, Eclipta prostrata, crabgrass, dog point. A pot with a diameter of 7.5 cm was used, filled with composite soil (garden soil:nursery matrix, 1:2, v/v) to ¾ of the pot, then the above […] kinds of weeds targets were directly seeded (germination rate ≧85%), covered with soil at a thickness of 0.2 cm. When the weeds grew to 3-leaf stage, pre-emergence soil treatment for weeds planting, and then spraying was performed.

Crabgrass = test: Potted plants live body test; assay type: in vivo
Source text: as §1, §2

Dog point = test: Potted plants live body test; assay type: in vivo
Source text: as §1, §2

Eclipta prostrata = test: Potted plants live body test; assay type: in vivo; conditions: for efficiency, Eclipta prostrata: 30 days, Table 9
Source text: as §1, §2

amaranthus retroflexus = test: Potted plants live body test; assay type: in vivo
Source text: as §1, §2

Barnyardgrass [3] = test: Potted plants live body test; assay type: in vivo, barnyard grass
Small quinoa = conditions: 150 g a.i./ha, 30 days, Table 9
Source text: as §1, §2

[4] = system: broadleaf weeds such as mustard, small quinoa, Abutilon, Amaranthus retroflexus and Eclipta prostrate; conditions: 150 g a.i./ha
Source text: as §1, §2

[5] = system: grass weeds such as crabgrass, barnyard grass, dog point
Source text: as §1, §2

weeds = conditions: pre-emergence soil treatment; dose lowered below 150 g a.i./ha
Source text: as §1, §2

Mustard = conditions: 150 g a.i./ha, 30 days, Table 9
Corn = conditions: post-emergence spray treatment
Soybean = conditions: 150 g a.i./ha; post-emergence spray treatment
Cotton = conditions: 150 g a.i./ha; post-emergence spray treatment
Rice = conditions: 150 g a.i./ha; post-emergence spray treatment
Rape [6] = conditions: 150 g a.i./ha; post-emergence spray treatment
Barley = conditions: post-emergence spray treatment
[7] = Postemergence spraying, 150 g a.i./ha, 30 days, Table 9
[8] = Pre-emergence soil treatment, 37.5 g a.i./ha
[9] = Pre-emergence soil treatment, 75 g a.i./ha
[10] = Pre-emergence soil treatment, 150 g a.i./ha, 30 days, Table 9
[11] = Pre-emergence soil treatment, 150 g a.i./ha, Table 10
[12] = postemergence spraying, 37.5 g a.i./ha
[13] = postemergence spraying, 75 g a.i./ha
[14] = postemergence spraying, 150 g a.i./ha, Table 10

`CON=C(C(=O)OC)c1ccccc1COc1cccc(-c2ncc(C(F)(F)F)cc2Cl)c1` [Compound 101] was tested, and the “inhibition rate, Wheat Root” value (Wheat; root) was 50%, the “inhibition rate, Wheat Stem” value (Wheat; stem) was 20% and the “inhibition rate, Chinese sorghum Root” value (Chinese sorghum; root) was 100%. For the same compound, the “inhibition rate, Chinese sorghum Stem” value (Chinese sorghum; stem) was 100%, the “inhibition rate, Barnyardgrass Root” value (Barnyardgrass [1]; root) was 100% and the “inhibition rate, Barnyardgrass Stem” value (Barnyardgrass [1]; stem) was 95%. The “inhibition rate, Cucumber Root” value (Cucumber; root) was 95%, the “inhibition rate, Cucumber Stem” value (Cucumber; stem) was 100% and the “inhibition rate, Rape Root” value (Rape [2]; root) was 100%. For the same compound, the “inhibition rate, Rape Stem” value (Rape [2]; stem) was 100%, the “inhibition rate, Radish Root” value (Radish; root) was 100% and the “inhibition rate, Radish Stem” value (Radish; stem) was 100%. For the same compound, the “efficiency, Abutilon” value (Abutilon; [7]) was 100%, the “efficiency, Abutilon” value (Abutilon; [8]) was 0% and the “efficiency, Abutilon” value (Abutilon; [9]) was 0%. For the same compound, the “efficiency, Abutilon” value (Abutilon; [10]) was 100%, the “efficiency, Abutilon” value (Abutilon; [11]) was 100% and the “efficiency, Abutilon” value (Abutilon; [12]) was 30%. The “efficiency, Abutilon” value (Abutilon; [13]) was 60%, the “efficiency, Abutilon” value (Abutilon; [14]) was 100% and the “efficiency, Crabgrass” value (Crabgrass; [7]) was 0%. For the same compound, the “efficiency, Crabgrass” value (Crabgrass; [8]) was 0%, the “efficiency, Crabgrass” value (Crabgrass; [9]) was 0% and the “efficiency, Crabgrass” value (Crabgrass; [10]) was 80%. The “efficiency, Crabgrass” value (Crabgrass; [11]) was 80%, the “efficiency, Crabgrass” value (Crabgrass; [12]) was 0% and the “efficiency, Crabgrass” value (Crabgrass; [13]) was 0%. The “efficiency, Crabgrass” value (Crabgrass; [14]) was 0%, the “efficiency, Dog point” value (Dog point; [7]) was 0% and the “efficiency, Dog point” value (Dog point; [8]) was 0%. For the same compound, the “efficiency, Dog point” value (Dog point; [9]) was 0%, the “efficiency, Dog point” value (Dog point; [10]) was 50% and the “efficiency, Dog point” value (Dog point; [11]) was 50%. For the same compound, the “efficiency, Dog point” value (Dog point; [12]) was 0%, the “efficiency, Dog point” value (Dog point; [13]) was 0% and the “efficiency, Dog point” value (Dog point; [14]) was 0%. The “efficiency, Eclipta prostrata” value (Eclipta prostrata; Postemergence spraying, 150 g a.i./ha) was 100%, the “efficiency, Eclipta prostrate” value (Eclipta prostrata; [8]) was 0% and the “efficiency, Eclipta prostrate” value (Eclipta prostrata; [9]) was 0%. The “efficiency, Eclipta prostrata” value (Eclipta prostrata; Pre-emergence soil treatment, 150 g a.i./ha) was 85%, the “efficiency, Eclipta prostrate” value (Eclipta prostrata; [11]) was 85% and the “efficiency, Eclipta prostrate” value (Eclipta prostrata; [12]) was 97.5%. The “efficiency, Eclipta prostrate” value (Eclipta prostrata; [13]) was 100%, the “efficiency, Eclipta prostrate” value (Eclipta prostrata; [14]) was 100% and the “efficiency, amaranthus retroflexus” value (amaranthus retroflexus; [7]) was 100%. The “efficiency, amaranthus retroflexus” value (amaranthus retroflexus; [8]) was 0%, the “efficiency, amaranthus retroflexus” value (amaranthus retroflexus; [9]) was 15% and the “efficiency, amaranthus retroflexus” value (amaranthus retroflexus; [10]) was 100%. The “efficiency, amaranthus retroflexus” value (amaranthus retroflexus; [11]) was 100%, the “efficiency, amaranthus retroflexus” value (amaranthus retroflexus; [12]) was 100% and the “efficiency, amaranthus retroflexus” value (amaranthus retroflexus; [13]) was 100%. The “efficiency, amaranthus retroflexus” value (amaranthus retroflexus; [14]) was 100%, the “efficiency, Barnyardgrass” value (Barnyardgrass [3]; [8]) was 0% and the “efficiency, Barnyardgrass” value (Barnyardgrass [3]; [9]) was 0%. For the same compound, the “efficiency, Barnyardgrass” value (Barnyardgrass [3]; [11]) was 0%, the “efficiency, Barnyardgrass” value (Barnyardgrass [3]; [12]) was 0% and the “efficiency, Barnyardgrass” value (Barnyardgrass [3]; [13]) was 0%. For the same compound, the “efficiency, Barnyardgrass” value (Barnyardgrass [3]; [14]) was 0%, the “efficiency, Small quinoa” value (Small quinoa; Postemergence spraying) was 100% and the “efficiency, Small quinoa” value (Small quinoa; Pre-emergence soil treatment) was 100%. The “herbicidal activity on broadleaf weeds targets” value ([4]; 30 days after administration, Table 9 summary) was “herbicidal activity”, the “activity on the growth of broadleaf weeds” value ([4]; postemergence spraying, 30 days, vs clear water control) was “inhibitory activity” and the “activity for grass targets such as crabgrass and dog point” value ([5]; 150 g a.i./ha, 30 days after administration, Table 9 summary) was “poor activity”. The “activity on grass weeds such as crabgrass, dog point” value ([5]; postemergence spraying, 150 g a.i./ha, 30 days) was “almost have no activity”, the “activity on crabgrass, barnyard grass, dog point” value ([5]; postemergence treatment, 150, 75, 37.5 g a.i./ha) was “not good activity or no activity” and the “activity on grass weeds” value ([5]; pre-emergence soil treatment, 150 g a.i./ha) was “not good activity”. For the same compound, the “activity on 6 kinds of weed targets” value (weeds) was “significantly decreased activity or no activity”, the “efficiency, Mustard” value (Mustard; Postemergence spraying) was 100% and the “efficiency, Mustard” value (Mustard; Pre-emergence soil treatment) was 100%. For the same compound, the “Crop inhibition rate, Corn” value (Corn; 150 g a.i./ha) was 0%, the “crop safety for corns” value (Corn) was “safer” and the “Crop inhibition rate, Soybean” value (Soybean) was 40%. For the same compound, the “Crop inhibition rate, Cotton” value (Cotton) was 50%, the “Crop inhibition rate, Rice” value (Rice) was 30% and the “Crop inhibition rate, Rape” value (Rape [6]) was 50%. For the same compound, the “Crop inhibition rate, Barley” value (Barley; 150 g a.i./ha) was 0% and the “crop safety for barleys” value (Barley) was “safer”.
